pIC50: −log10 of the molar value. *1 amine or outer side, *2 acyl side, *3 side chain or, on linkers, in order; H or OH if unused. Where a SMILES comes first, the peptide text is derived from it. [ ]: non-standard residue; d: D form. Phe(4-PO3H2) = N[C@@H](Cc1ccc(P(=O)(O)O)cc1)C(=O)O; Oic = O=C(O)[C@@H]1C[C@@H]2CCCC[C@@H]2N1; X1 = O=C([C@@H]1C2CCC(CC2)N1[*:1])[*:2]
Tests used:
human thrombin [1] = target: T1, human thrombin (Homo sapiens, UniProt P00734); experiment: inhibition of thrombin, fibrinogen as substrate; assay type: biochemical; conditions: 20 C, fibrin measured at 405 nm
T1 construct: human thrombin (Sigma, specific activity 3230 NIHU/mg); purchased Sigma
Description: (§1) In order to evaluate in vitro the inhibitory activity of the products of the invention on human thrombin (Sigma, specific activity 3230 NIHU/mg), human fibrinogen (purified or plasmatic) (Fg) or the chromogenic substrate H-D-Phe-Pip-Arg-pNA ([…], S 2238, Kabi) were added to a given quantity of thrombin (0.7 or 2 nM) previously incubated with or without the test inhibitor (20 C, 10 min).
(§2) In order to evaluate in vitro the selectivity of these products towards various coagulation serine proteases, the same procedure was applied to purified human plasmin (2 nM, Stago), to purified human activated factor X (2 nM, Stago), to kallikrein (2 nM, sigma), to urokinase (2 nM, sigma), to plasminogen tissue activator (t-PA; 2 nM, Stago) and to purified human activated protein C (2 nM, Stago) using, as substrate, various paranitroanilide-containing peptides. The inhibitors, enzymes and substrates are diluted in the same buffer ([…] phosphate buffer pH 7.4, containing 0.12M sodium chloride and 0.05% bovine serum albumin) and then distributed in a polystyrene microplate in a volume of 50 l.
(§3) The fibrin formed by thrombin or the paranitroanilide liberated by the action of the serin protease is measured spectrophotometrically at 405 nm after reacting for 15 to 30 minutes at 20° C. […] The results are expressed in IC50 value: the concentration in nM which inhibits the enzymatic activity by 50%.

human thrombin [2] = target: T1, human thrombin; experiment: inhibition of thrombin, chromogenic substrate H-D-Phe-Pip-Arg-pNA (S 2238); assay type: biochemical; conditions: 20 C, 405 nm
Description: as §1, §2, §3

purified human plasmin = target: T2, purified human plasmin (Homo sapiens, UniProt P00747); experiment: selectivity towards coagulation serine proteases: plasmin; assay type: biochemical; conditions: 2 nM enzyme, paranitroanilide-containing peptide substrate; read-out: IC50 with respect to plasmin
T2 construct: purified human plasmin (2 nM, Stago); purchased Stago
T2 sequence (P00747 581-810 limits assumed): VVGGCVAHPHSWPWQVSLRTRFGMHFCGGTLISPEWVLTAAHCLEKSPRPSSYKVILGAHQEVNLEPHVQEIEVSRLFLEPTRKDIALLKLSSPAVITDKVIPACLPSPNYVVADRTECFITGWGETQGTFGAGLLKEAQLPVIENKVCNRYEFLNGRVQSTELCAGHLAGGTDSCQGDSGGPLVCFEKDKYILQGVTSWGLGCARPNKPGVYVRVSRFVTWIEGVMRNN
T2 sequence (P00747 97-580 limits assumed): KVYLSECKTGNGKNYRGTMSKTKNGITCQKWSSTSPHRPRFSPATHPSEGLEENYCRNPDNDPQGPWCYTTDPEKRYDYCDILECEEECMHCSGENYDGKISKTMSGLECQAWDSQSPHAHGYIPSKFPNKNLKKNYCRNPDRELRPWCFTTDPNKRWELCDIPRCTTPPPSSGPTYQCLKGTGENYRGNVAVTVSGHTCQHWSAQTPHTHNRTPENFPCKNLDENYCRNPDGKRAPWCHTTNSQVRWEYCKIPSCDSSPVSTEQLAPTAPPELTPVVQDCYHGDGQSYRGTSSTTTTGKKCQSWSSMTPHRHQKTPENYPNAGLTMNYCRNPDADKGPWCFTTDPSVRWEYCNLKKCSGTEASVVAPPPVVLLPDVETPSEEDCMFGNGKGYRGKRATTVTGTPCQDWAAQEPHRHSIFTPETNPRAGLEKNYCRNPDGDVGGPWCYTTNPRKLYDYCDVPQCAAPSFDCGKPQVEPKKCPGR
Description: as §2, §3

[3] = target: T3, purified human activated factor X (Homo sapiens, UniProt P00742); experiment: selectivity towards coagulation serine proteases: activated factor X; assay type: biochemical; conditions: 2 nM enzyme, paranitroanilide-containing peptide substrate; read-out: IC50 with respect to activated factor X
T3 construct: purchased Stago
T3 sequence (P00742 235-488 limits assumed): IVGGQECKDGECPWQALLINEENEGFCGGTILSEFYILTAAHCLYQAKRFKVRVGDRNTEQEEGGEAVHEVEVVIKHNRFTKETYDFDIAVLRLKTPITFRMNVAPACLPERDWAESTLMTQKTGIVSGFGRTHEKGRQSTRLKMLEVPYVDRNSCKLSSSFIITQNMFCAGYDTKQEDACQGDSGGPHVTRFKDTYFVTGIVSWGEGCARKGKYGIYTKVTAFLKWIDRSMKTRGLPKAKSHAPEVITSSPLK
T3 sequence (P00742 41-179 limits assumed): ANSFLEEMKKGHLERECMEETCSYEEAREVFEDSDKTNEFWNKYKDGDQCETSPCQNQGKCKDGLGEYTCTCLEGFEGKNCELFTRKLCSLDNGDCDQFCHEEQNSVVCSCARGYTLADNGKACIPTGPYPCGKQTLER
Description: as §2, §3

[4] = test system: activated cephalin time (ACT), human plasma; experiment: activated cephalin time (ACT) in vitro on human plasma; assay type: biochemical; conditions: human plasma low in platelets, citrate
Description: (§4) In the presence of a standard quantity of thrombin or activated cephalin, a normal plasma coagulates within a defined and constant time called thrombin time (TT) and activated cephalin time (ACT) respectively. The extension of these coagulation times by pharmacological substances reflects an anticoagulant effect.
(§5) The in vitro effect of the products of the invention was measured on human plasma. Blood was collected by venous puncture in a tube containing citrate. After decantation (1200 g, 10 min), the plasma low in platelets is decanted so as to then carry out the coagulation tests. […] The compound of Example 1 doubles the TT at the concentration of […] and the ACT at the concentration of […].

kallikrein = experiment: selectivity towards coagulation serine proteases: kallikrein; assay type: biochemical; conditions: 2 nM enzyme, paranitroanilide-containing peptide substrate; read-out: IC50 with respect to kallikrein
Description: as §2, §3

[5] = test system: thrombin time (TT), OFA rats; experiment: thrombin time (TT) ex vivo in OFA rats; conditions: rat, 0.8 mg/kg i.v.
Description: as §4
(§6) The effect of the products was tested ex vivo in OFA rats anesthetized with sodium pentobarbital (60 mg/kg i.p.) The carotid artery and the jugular vein are catheterized. After installation of the catheters, 1.5 cm^3 of arterial blood are collected over citrate (0.109M). 30 minutes later, the test product is administered in a volume of 1 ml by i.v. Arterial samples (1.5 cm^3) are then collected at […], 3 min, 5 min, 15 min, 30 min and 60 min. At each collection of sample, 1.5 cm^3 of citrated physiological saline is reinjected into the animal via the carotid.

[6] = test system: activated cephalin time (ACT), OFA rats; experiment: activated cephalin time (ACT) ex vivo in OFA rats; conditions: rat, 0.8 mg/kg i.v.
Description: as §4, §6

urokinase = target: T4, urokinase (Homo sapiens, UniProt P00749); experiment: selectivity towards coagulation serine proteases: urokinase; assay type: biochemical; conditions: 2 nM enzyme, paranitroanilide-containing peptide substrate; read-out: IC50 with respect to urokinase
T4 construct: purchased sigma
Description: as §2, §3

[7] = test system: thrombin time (TT), human plasma; experiment: thrombin time (TT) in vitro on human plasma; assay type: biochemical; conditions: human plasma low in platelets, citrate
Description: as §4, §5

[8] = target: T5, plasminogen tissue activator (t-PA) (Homo sapiens, UniProt P00750); experiment: selectivity towards coagulation serine proteases: t-PA; assay type: biochemical; conditions: 2 nM enzyme, paranitroanilide-containing peptide substrate; read-out: IC50 with respect to t-PA
T5 construct: purchased Stago
T5 sequence (P00750 23-562 limits assumed, species assumed): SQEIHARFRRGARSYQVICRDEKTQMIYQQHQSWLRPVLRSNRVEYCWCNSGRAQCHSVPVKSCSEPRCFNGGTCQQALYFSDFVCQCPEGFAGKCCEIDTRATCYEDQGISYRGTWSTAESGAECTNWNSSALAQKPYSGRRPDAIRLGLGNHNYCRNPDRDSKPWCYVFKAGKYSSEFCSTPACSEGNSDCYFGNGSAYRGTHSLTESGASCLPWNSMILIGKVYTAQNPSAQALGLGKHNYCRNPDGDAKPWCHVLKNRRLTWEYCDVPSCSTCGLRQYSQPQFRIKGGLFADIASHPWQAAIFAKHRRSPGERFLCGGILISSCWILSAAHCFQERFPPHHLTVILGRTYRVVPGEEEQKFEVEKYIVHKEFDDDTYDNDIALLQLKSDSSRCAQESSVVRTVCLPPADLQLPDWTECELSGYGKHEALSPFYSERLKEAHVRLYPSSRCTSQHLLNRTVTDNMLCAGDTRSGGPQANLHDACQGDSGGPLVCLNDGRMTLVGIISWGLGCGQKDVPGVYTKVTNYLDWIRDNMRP
Description: as §2, §3

[9] = target: T6, purified human activated protein C (Homo sapiens, UniProt P04070); experiment: selectivity towards coagulation serine proteases: activated protein C; assay type: biochemical; conditions: 2 nM enzyme, paranitroanilide-containing peptide substrate; read-out: IC50 with respect to activated protein C
T6 construct: purchased Stago
T6 sequence (P04070 212-450 limits assumed): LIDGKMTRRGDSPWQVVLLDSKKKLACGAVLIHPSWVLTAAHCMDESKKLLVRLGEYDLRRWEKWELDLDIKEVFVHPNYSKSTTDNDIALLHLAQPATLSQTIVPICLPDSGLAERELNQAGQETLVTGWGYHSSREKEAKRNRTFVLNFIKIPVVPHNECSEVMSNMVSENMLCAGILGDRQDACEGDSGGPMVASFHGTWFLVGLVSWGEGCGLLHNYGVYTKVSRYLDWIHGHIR
T6 sequence (P04070 43-197 limits assumed): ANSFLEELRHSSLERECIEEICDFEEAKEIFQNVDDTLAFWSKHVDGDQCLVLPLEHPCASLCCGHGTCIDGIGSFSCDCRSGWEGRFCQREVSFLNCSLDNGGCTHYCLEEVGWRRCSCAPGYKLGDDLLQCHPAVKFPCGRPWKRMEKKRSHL
Description: as §2, §3

male OFA rats = experiment: venous thrombosis induced by ligation of the vena cava inferior (weight of the clot); assay type: in vivo; conditions: rat, clot withdrawn 25 minutes after ligation
Description: The test animals are anesthetized by administration of sodium pentobarbital (50 mg/kg i.p.). 15 minutes before the ligation, the animals are treated with the test products via the i.v. route. The clot is withdrawn from the vena cava 25 minutes after the ligation, it is weighed after desiccation (24 hours at 60 C.).

Work on `CC[C@H](C)[C@H](NC(=O)[C@@H]1C2CCC(CC2)N1C(=O)[C@H](CCC(=O)O)NC(=O)[C@H](Cc1ccccc1)NC(=O)[C@H](CC(=O)O)NC(=O)CNC(=O)[C@H](CC(N)=O)NC(=O)CNC(=O)CNC(=O)CNC(=O)CNC(=O)[C@@H]1CCCN1C(=O)[C@H](CCCNC(=N)N)NC(=O)[C@@H]1CCCN1C(=O)[C@H](N)Cc1ccccc1)C(=O)N1CCC[C@H]1C(=O)N[C@@H](CCC(=O)O)C(=O)N[C@@H](CCC(=O)O)C(=O)N[C@@H](Cc1ccc(P(=O)(O)O)cc1)C(=O)N[C@@H](CC(C)C)C(=O)N[C@H](CCC(=O)O)C(=O)O` [Example 1, H-phe-Pro-Arg-Pro-(Gly)4 -Asn-Gly-Asp-Phe-Glu-Abo-Ile-Pro-(Glu)2 -Phe(pPO3 H2)-Leu-glu-OH] (H-[dF]PRPGGGGNGDFE[X1]IPEE[Phe(4-PO3H2)]L[dE]-OH) yielded a pIC50 (human thrombin [1]) of 8.21 and a pIC50 (human thrombin [2]) of 7.74.

With `CC[C@H](C)[C@H](NC(=O)[C@H](CCC(=O)O)NC(=O)[C@H](CCC(=O)O)NC(=O)[C@H](Cc1ccccc1)NC(=O)[C@H](CC(=O)O)NC(=O)CNC(=O)[C@H](CC(N)=O)NC(=O)CNC(=O)CNC(=O)CNC(=O)CNC(=O)[C@@H]1CCCN1C(=O)[C@H](CCCNC(=N)N)NC(=O)[C@@H]1CCCN1C(=O)[C@H](N)Cc1ccccc1)C(=O)N1CCC[C@H]1C(=O)N[C@@H](CCC(=O)O)C(=O)N[C@@H](CCC(=O)O)C(=O)N[C@@H](Cc1ccc(O)cc1)C(=O)N[C@@H](CC(C)C)C(=O)O` [hirulog-1] the pIC50 (purified human plasmin) was less than 4.48, the pIC50 [3] was less than 4.48 and the “concentration that doubles the ACT” value [4] was 0.2 M. The pIC50 (kallikrein) was less than 4.48, the “Increase in the TT (multiplicative factor)” value (“Increase in the TT” for short) ([5]; 1.5 min) was 13 and the “Increase in the TT” value ([5]; 3 min) was 11. For the same compound, the “Increase in the TT” value ([5]; 5 min) was 9.8, the “Increase in the TT” value ([5]; 15 min) was 6.6 and the “Increase in the TT” value ([5]; 30 min) was 4.2. The “Increase in the TT” value ([5]; 60 min) was 2.2, the “Increase in the ACT (multiplicative factor)” value (“Increase in the ACT” below) ([6]; 1.5 min) was 3.8 and the “Increase in the ACT” value ([6]; 3 min) was 3.2. For the same compound, the “Increase in the ACT” value ([6]; 5 min) was 2.6, the “Increase in the ACT” value ([6]; 15 min) was 2.1 and the “Increase in the ACT” value ([6]; 30 min) was 1.6. The “Increase in the ACT” value ([6]; 60 min) was 1.3, the pIC50 (urokinase) was less than 4.48 and the “concentration that doubles the TT” value [7] was 0.07 M. The pIC50 [8] was less than 4.48, the pIC50 [9] was less than 4.48 and the “Decrease in the weight of the clot in %” value (male OFA rats; 0.1 mg/kg i.v. 15 minutes before ligation) was -0%. The “Decrease in the weight of the clot in %” value (male OFA rats; 1 mg/kg i.v. 15 minutes before ligation) was -46%.

`CC[C@H](C)[C@H](NC(=O)[C@@H]1C2CCC(CC2)N1C(=O)[C@H](CCC(=O)O)NC(=O)[C@H](Cc1ccccc1)NC(=O)[C@H](CC(=O)O)NC(=O)CNC(=O)[C@H](CC(N)=O)NC(=O)CNC(=O)CNC(=O)CNC(=O)CNC(=O)[C@@H]1CCCN1C(=O)[C@H](CCCNC(=N)N)NC(=O)[C@@H]1C[C@@H]2CCCC[C@@H]2N1C(=O)[C@H](N)Cc1ccccc1)C(=O)N1CCC[C@H]1C(=O)N[C@@H](CCC(=O)O)C(=O)N[C@@H](CCC(=O)O)C(=O)N[C@@H](Cc1ccc(P(=O)(O)O)cc1)C(=O)N[C@@H](CC(C)C)C(=O)N[C@H](CCC(=O)O)C(=O)O` [Example 2, H-phe-Oic-Arg-Pro-(Gly)4 -Asn-Gly-Asp-Phe-Glu-Abo-Ile-Pro-(Glu)2 -Phe(pPO3 H2)-Leu-glu-OH] (H-[dF][Oic]RPGGGGNGDFE[X1]IPEE[Phe(4-PO3H2)]L[dE]-OH) gave a pIC50 (human thrombin [1]) of 8.40 and a pIC50 (human thrombin [2]) of 7.82.
